“Also recorded” adds a separate entry of the source.
How the values were obtained:
II-6 [1] = assay: Gene expression of inflammatory marker II-6 by real-time PCR in 5XFAD mice; conditions: 5×FAD
Protocol: (§1) Total RNA isolation was carried out by means of Trizol reagent following manufacturer's instructions. […] Samples were also tested in an Agilent 2100B Bioanalyzer (Agilent Technologies) to determine the RNA integrity number. Reverse Transcription-Polymerase Chain Reaction (RT-PCR) was performed as follows: 2 μg of messenger RNA (mRNA) was reverse-transcribed using the High Capacity complementary DNA (cDNA) Reverse Transcription Kit (Applied Biosystems). Normalization of expression levels was performed with actin. SYBER Green, real-time PCR was performed in the Step One Plus Detection System (Applied Biosystems) employing the SYBR Green PCR Master Mix. Each reaction mixture contained 7.5 μL of cDNA, whose concentration was 2 μg, 0.75 μL of each primer (whose concentration was 100 nM), and 7.5 μL of SYBR Green PCR Master Mix (2×). Data were analyzed utilizing the comparative Cycle threshold (Ct) method (Fold Change), where the actin transcript level was used to normalize differences in sample loading and preparation. Each sample (n=4-5) was analyzed in triplicate, and results represented the n-fold difference of transcript levels among different samples.

II-6 [2] = assay: Gene expression of inflammatory marker II-6 by real-time PCR in SAMP8 mice
Protocol: as §1

5XFAD mice = assay: Novel Object Recognition Test (NORT) in 5XFAD mice
Protocol: (§2) Mice were placed in a 90°, two-arm, 25-cm-long, 20-cm-high, 5-cm-wide black maze. The walls could be lifted off for easy cleaning. Light intensity in the middle of the field was 30 lux. The objects to be discriminated were made of plastic and were chosen not to frighten the mice, and objects with parts that could be bitten were avoided. Before performing the test, the mice were individually habituated to the apparatus for 10 min during 3 days. On day 4, the animals were submitted to a 10-min acquisition trial (first trial), during which they were placed in the maze in the presence of two identical, novel objects (A+A or B+B) at the end of each arm. A 10-min retention trial (second trial) was carried out 2 h later. During this second trial, objects A and B were placed in the maze and the behavior of the mice was recorded with a camera. Time that the mice explored the new object (TN) and Time that the mice explored the Old object (TO) were measured. A Discrimination Index (DI) was defined as (TN−TO)/(TN+TO). In order to avoid object preference biases, A and B were counterbalanced so that one half of the animals in each experimental group were exposed first to A and then to B, whereas the remaining half saw B first and then A. The maze and the objects were cleaned with 70° ethanol after each test in order to eliminate olfactory cues.

Cxcl10 [3] = assay: Gene expression of inflammatory marker Cxcl10 by real-time PCR in 5XFAD mice; conditions: 5×FAD
Protocol: as §1

in vitro = conditions: pig, PAMPA
Protocol: (§3) To evaluate the brain penetration of the different compounds, a parallel artificial membrane permeation assay for blood-brain barrier was used, following the method described by Di et al. (cf. Table 2). The in vitro permeability (Pe) of fourteen commercial drugs through lipid extract of porcine brain membrane together with the test compounds were determined. Commercial drugs and assayed compounds were tested using a mixture of PBS:EtOH (70:30).

[4] = predictive penetration in the CNS from PAMPA-BBB Pe
Protocol: as §3

Cxcl10 [5] = assay: Gene expression of inflammatory marker Cxcl10 by real-time PCR in SAMP8 mice
Protocol: as §1

SAMP8 mice = assay: Novel Object Recognition Test (NORT) in SAMP8 mice
Protocol: as §2

CCOP(=O)(OCC)[C@]1(c2ccccc2)N=C[C@H]2C(=O)N(c3ccc(F)c(Cl)c3)C(=O)[C@H]21 (racemic) [Compound I-06, Diethyl (1RS,3aSR,6aSR)-5-(3-chloro-4-fluorophenyl)-4,6-dioxo-1-phenyl-1,3a,4,5,6,6a-hexahydropyrrolo[3,4-c]pyrrole-1-phosphonate]
II-6 marker of neuroinflammation, gene expression in brain (in words) (II-6 [1]): reduced | II-6 marker of neuroinflammation, gene expression in brain (in words) (II-6 [2]): reduced | cognitive / memory effect in NORT (in words) (5XFAD mice; 5XFAD mice, treated group compared to the control): recovered DI levels of the Wild Type (Wt) control group; also recorded: improves cognitive abilities | DI (−1, 1) NORT 2 h (5XFAD mice; female 5XFAD mice at 6 months, 5 mg/kg, retention 2 h): 0.199 ± 0.053 | DI (−1, 1) NORT 24 h (5XFAD mice; female 5XFAD mice at 6 months, 5 mg/kg, retention 24 h): 0.229 ± 0.051 | Cxcl10 marker of neuroinflammation, gene expression in brain (in words) (Cxcl10 [3]): reduced | Papp (in vitro): 9.7 ± 0.7 ×10⁻⁶ cm/s | CNS Prediction [4]: CNS+ (compounds of high BBB permeation (CNS+): Pe (10^−6 cm s^−1)>5,179) | Cxcl10 marker of neuroinflammation, gene expression in brain (in words) (Cxcl10 [5]): reduced | cognitive / memory effect in NORT (in words) (SAMP8 mice; SAMP8 mice, treated group compared to the control): reduced memory deficits; also recorded: improves cognitive abilities | DI (−1, 1) NORT 2 h (SAMP8 mice; female SAMP8 mice at 12 months, 5 mg/kg, retention 2 h, mean ± SEM): 0.33 ± 0.071 | DI (−1, 1) NORT 24 h (SAMP8 mice; female SAMP8 mice at 12 months, 5 mg/kg, retention 24 h): 0.273 ± 0.042
